According to ChEMBL document CHEMBL4052697, “Chimeric analogs of human β-defensin 1 and θ-defensin disrupt pre-established bacterial biofilms” (2017):
In brackets after ≈: the same amount, converted by molar mass. Activity calls are given as the source filed them. The calls are words filed in the database; no cut-off is given here. Positions of bridges follow the written chain, without caps; N, C: chain ends. Non-standard residues stand in square brackets, D forms with d. Residues, ends and D or L forms follow the SMILES beside them.

Legend:
Format in all cases: functional
Staphylococcus aureus [1] = assay: Bactericidal activity against Staphylococcus aureus NCTC 8530 planktonic forms
Staphylococcus aureus [2] = assay: Antibiofilm activity against pre-established 36 hrs old bacterial biofilms of Staphylococcus aureus NCTC 8530 assessed as reduction in number of viable bacterial cells incubated for 4 hrs by XTT assay
Escherichia coli [3] = assay: Bactericidal activity against Escherichia coli MG1655 planktonic forms
Staphylococcus aureus [4] = assay: Antibiofilm activity against pre-established 36 hrs old bacterial biofilms of Staphylococcus aureus NCTC 8530 incubated for 4 hrs by XTT assay
Staphylococcus aureus [5] = assay: Antibiofilm activity against pre-established 36 hrs old bacterial biofilms of Staphylococcus aureus NCTC 8530 incubated for 4 hrs by […] LIVE/DEAD BacLight staining based confocal microscopy
Escherichia coli [6] = assay: Antibiofilm activity against pre-established 36 hrs old bacterial biofilms of Escherichia coli MG1655 incubated for 4 hrs Antibiofilm activity against pre-established 36 hrs old bacterial biofilms of Escherichia coli MG1655 incubated for 4 hrs by LIVE/DEAD BacLight staining based confocal microscopy
Escherichia coli [7] = assay: Antibiofilm activity against pre-established 36 hrs old bacterial biofilms of Escherichia coli MG1655 incubated for 4 hrs by XTT assay

| SMILES | MBC (Staphylococcus aureus [1]) [µM] | MBEC (Staphylococcus aureus [2]) | MBC (Escherichia coli [3]) [µM] | MBEC (Staphylococcus aureus [4]) | Activity (Staphylococcus aureus [5]) | Activity (Escherichia coli [6]) | MBEC (Escherichia coli [7]) [µM] |
| --- | --- | --- | --- | --- | --- | --- | --- |
| CC[C@@H](C)[C@H]1NC(=O)[C@H](CCCCN)NC(=O)[C@H]([C@@H](C)O)NC(=O)[C@H](Cc2ccccc2)NC(=O)[C@@H]([C@H](C)CC)NC(=O)[C@@H]2CCCN2C(=O)[C@@H](NC(=O)[C@H](C)N)CSSC[C@@H](C(=O)N[C@@H](CCCNC(=N)N)C(=O)O)NC(=O)[C@H](CCCCN)NC(=O)[C@H](C)NC(=O)[C@@H](CCCNC(=N)N)NC(=O)CNC(=O)[C@@H](CCCNC(=N)N)NC(=O)[C@H](Cc2ccc(O)cc2)NC(=O)[C@H]([C@@H](C)O)NC(=O)CNC(=O)[C@H](CCC(N)=O)NC1=O (H-ACP[dI]FTK[dI]QGTY[dR]G[dR]AKCR-OH; disulfide 2-18) | 5 (≈ 10.8 µg/mL) | Active | 5 (≈ 10.8 µg/mL) | inactive |  |  |  |
| CC[C@H](C)[C@@H]1NC(=O)[C@H](CCCCN)NC(=O)[C@H]([C@@H](C)O)NC(=O)[C@H](Cc2ccccc2)NC(=O)[C@H]([C@@H](C)CC)NC(=O)[C@@H]2CCCN2C(=O)[C@@H](NC(=O)[C@H](C)N)CSSC[C@@H](C(=O)N[C@@H](CCCNC(=N)N)C(=O)O)NC(=O)[C@H](CCCCN)NC(=O)[C@H](C)NC(=O)[C@H](CCCNC(=N)N)NC(=O)CNC(=O)[C@H](CCCNC(=N)N)NC(=O)[C@H](Cc2ccc(O)cc2)NC(=O)[C@H]([C@@H](C)O)NC(=O)CNC(=O)[C@H](CCC(N)=O)NC1=O (H-ACPIFTKIQGTYRGRAKCR-OH; disulfide 2-18) | 5 (≈ 10.8 µg/mL) | Active | 5 (≈ 10.8 µg/mL) |  |  |  |  |
| CC[C@@H](C)[C@H]1NC(=O)[C@H]2CCCN2C(=O)[C@H](NC(=O)[C@@H](C)N)CSSC[C@H](C(=O)O)NC(=O)[C@@H]([C@H](C)CC)NC(=O)[C@@H](CCCNC(=N)N)NC(=O)[C@@H](CCCNC(=N)N)NC(=O)CNC(=O)[C@@H]([C@H](C)CC)NC(=O)[C@@H](CCCNC(=N)N)NC(=O)[C@@H](CCCCN)NC(=O)[C@@H](C)NC(=O)[C@@H](CCCCN)NC(=O)CNC(=O)[C@@H](CCCNC(=N)N)NC(=O)[C@@H](Cc2ccc(O)cc2)NC(=O)[C@@H]([C@H](C)O)NC(=O)CNC(=O)[C@@H](CCC(N)=O)NC(=O)[C@@H]([C@H](C)CC)NC(=O)[C@@H](CCCCN)NC(=O)[C@@H]([C@H](C)O)NC(=O)[C@@H](Cc2ccccc2)NC1=O | 2 (≈ 5.47 µg/mL) |  | 1 (≈ 2.74 µg/mL) | 200 µM | Active | Active | 200 |
| CC[C@H](C)[C@@H]1NC(=O)[C@H](CCCCN)NC(=O)[C@H]([C@@H](C)O)NC(=O)[C@H](Cc2ccccc2)NC(=O)[C@H]([C@@H](C)CC)NC(=O)[C@@H]2CCCN2C(=O)[C@@H](NC(=O)[C@H](C)N)CSSC[C@@H](C(=O)O)NC(=O)[C@H]([C@@H](C)CC)NC(=O)[C@@H](CCCNC(=N)N)NC(=O)[C@H](CCCNC(=N)N)NC(=O)CNC(=O)[C@@H]([C@@H](C)CC)NC(=O)[C@H](CCCNC(=N)N)NC(=O)[C@H](CCCCN)NC(=O)[C@H](C)NC(=O)[C@H](CCCCN)NC(=O)CNC(=O)[C@H](CCCNC(=N)N)NC(=O)[C@H](Cc2ccc(O)cc2)NC(=O)[C@H]([C@@H](C)O)NC(=O)CNC(=O)[C@H](CCC(N)=O)NC1=O | 2 (≈ 5.47 µg/mL) |  | 1 (≈ 2.74 µg/mL) | 150 µM | Active | Active |  |
